This passage reports Ki results from patent US6087361A, “Aryl-imidazolines and aryl-imidazoles useful as α-2 adrenergic agonists without cardiovascular side effects” (Allergan Sales, Inc., priority 1997, dated 2000).

pKi: −log10 of the molar value.

In this test the target is I1 imidazoline receptor. The experiment in a line: I1 imidazoline receptor binding assay, 3H-clonidine, bovine VLM membranes. Conditions: 25° C., 50 min. Here is the method: Fresh bovine brain stems were obtained from a local slaughter house. After removal of pia-arachnoid, the medulla was isolated by dissecting the brain stem about 1 cm posterior and 1 cm caudal to the obex. The ventral quadrants of the medulla excluding the pyramids were used as the VLM. For each preparation, 30 to 40 VLM were used. Initial homogenization was performed in 20 volumes of 5 mM HEPES buffer (pH 7.4 at 4° C.) containing 250 mM sucrose, 50 uM Calpain I inhibitor (Boehginer Mannheim, Indianapolis, Ind.), 100 uM 1,10-phenanthroline (Sigma, St. Louis, Mo.) and 50 uM Pefabloc (Boehginer Mannheim, Indianapolis, Ind.), using Virtis homogenizer at setting 7 with three 10 second pulses, followed by three passes in a teflon-glass tissue homogenizer. The inhibitors were added to prevent degradation by proteases and peptidases. The homogenates were then centrifuged at 1000× g for 10 min and the resulting pellets were re-homogenized and centrifuged. Supernatants resulted from both runs were combined and centrifuged for 20 min at 48000× g. The pellets obtained were resuspended in a teflon-glass homogenizer in 50 mM Tris-HCl with 5 mM EDTA (pH 7.7 at 4° C.), centrifuged, and resuspended in 50 mM Tris-HCl with 25 mM NaCl, pH 7.7 at room temp. To remove endogenous ligands, the homogenate was incubated 30 min at room temp before it was centrifuged for 20 min at 48000× g. The pellets were then washed with 50 mM Tris-HCl buffer, (pH 7.4 at 4° C.) and loaded on top of 5 mM HEPES/0.85 M sucrose (pH 7.4 at 4° C.). Pellets obtained after centrifugation at 48000× g for 20 min were saved. The fatty connective tissue on the top layer was discarded. The partially purified VLM membrane pellets were then washed twice with 50 mM Tris-HCl, pH 7.7 at 4° C., flash frozen in dry ice/acetone slush, and stored at -100° C. until use. Receptor binding experiments were performed within days after the membrane preparation.
I1 imidazoline receptor binding affinity was determined from radioligand binding of ^3 H-clonidine (NEN, Boston, Mass.) to bovine VLM membranes. Specific activity of ^3 H-clonidine was 43 Ci/mmol. Kd of ^3 H-clonidine binding to the I1 imidazoline receptor was determined by saturation experiments and Ki of other ligands studied were determined by competition experiments. The radioligand binding assay was performed in Teflon 96-wells with the Biomek-1000 robotics (Beckman Instruments, Fullerton, Calif.). Each well contained […] ^3 H-Clonidine and 0.3 to 0.5 mg of bovine VLM protein in 5 mM HEPES buffer containing 0.5 mM EGTA and 0.5 mM MgCl2, pH 7.4 (0.1 mM ascorbic acid was added just before the protein). After 50 min of incubation at 25° C., the reaction was terminated by rapid filtration over Whatman GF/B filters treated with 0.1% polyethyleneimine and washed with 12 ml ice cold 50 mM Tris-HCl, pH 7.4 at 4° C. in a Brandel Harvester (Brandel, Gaithersburg, Md.). Both `hot` and `cold` saturation experiments were performed. In `hot` saturation experiments, studies were performed with ^3 H-clonidine ranging from 0.1 to 50 nM. In `cold` saturation experiments, studies were performed with 2 nM ^3 H-clonidine with 20 different concentrations of the unlabeled clonidine, ranging from 0.1 nM to 1 uM unlabeled clonidine. Non specific binding was defined by parallel incubations containing 10^-5 M phentolamine or naphazoline. Imidazoline binding was determined by parallel incubations in which the alpha-adrenergic sites were masked with 10^-5 M norepinephrine. During competition experiments, ligands of 20 concentrations ranged from 10^-11 to 10^-4 were used. Radioactivity was counted in a Beckman LS-3801 scintillation counter. Data were captured and analyzed with Accufit saturation and competition softwares modeled both for one-site and two-site fits (Beckman Instruments, Fullerton, Calif.) using an IBM compatible computer. All experiments were repeated at least twice.
Consider `Cc1ccccc1NC1=NCCN1` [Example 1], for which the negative logarithm of the Ki (pKi) was 7.92.

Turning to `Nc1cc(Cl)c(NC2=NCCN2)c(Cl)c1` [Example 3], the pKi was 7.72.

Consider `c1cc2c(cc1NC1=NCCN1)NCCN2` [Example 7], for which the negative logarithm of the Ki (pKi) was 5.70.

Molecule `Cc1c(NC2=NCCN2)ccc2c1NCCN2` [Example 8] gave a negative-log Ki (pKi) of 4.00.

`Brc1c(NC2=NCCN2)ccc2c1NCCN2` [Example 9] gave a pKi of 5.34.

In turn, `CC1CNc2c(ccc(NC3=NCCN3)c2Br)N1` (stereo not drawn) [Example 10] had a pKi of 5.40.

The molecule `c1cc2c(cc1NC1=NCCN1)OCCO2` [Example 11] showed a negative-log Ki (pKi) of 5.74.

Take `COc1ccc(NC2=NCCN2)c(C)c1OC` [Example 12]: the negative-log Ki (pKi) was 6.47. This pKi is 0.73 log units higher than that of the molecule before.

The molecule `Cc1c(NC2=NCCN2)ccc2c1OCCO2` [Example 13] had a pKi of 6.08.

With `O=C1COc2ccc(NC3=NCCN3)cc2N1` [Example 14], the negative-log Ki (pKi) was 4.94.

`Cc1c(NC2=NCCN2)ccc2c1NC(=O)CO2` [Example 15] gave a pKi of 4.00.

`Cc1c(NC2=NCCN2)ccc2c1NCCO2` [Example 16] had a negative-log Ki (pKi) of 5.15.

`Cc1cccc(Nc2ncc[nH]2)c1C` [Example 18] had a pKi of 7.72.

With `Cc1c(O)cccc1Nc1ncc[nH]1` [Example 20], the pKi was 6.39.

The molecule `COc1c(C(C)(C)C)cc(C)c(Nc2ncc[nH]2)c1C` [Example 22] showed a pKi of 5.36.

One may read the pKi as −log10 of the Ki, conventionally taken in molar units.
